In US20040191297A1, “Carotenoid formulation” (priority 1997, published 2004):

How the values were obtained:
[1] = Carotenoid content of Lycopene Suspension-supplemented diets after 7 months storage; assay type: physicochemical; details: for Carotenoid content of diet: stored at −20 °C for 7 months
Procedure: When the Lycopene Suspension (Henkel Corporation, La Grange, Ill.) was extracted by organic extraction methods, the major carotenoid was lycopene, but a number of other carotenoids were known to be present in tomatoes, α- and β-Carotene, phytofluene and phytoene were also present (FIGS. 6 & 7). The quantitative profile of carotenoids in the Lycopene Suspension was carried out using an HPLC system as described above, equipped with a photodiode array detector. The six major components can be seen in Table 7.
(Table 10). Note that all the major carotenoids plus the lycopene metabolite present in the Lycopene Suspension are present in the diets in the same relative proportions. However, the net loss of lycopene over 7 months was 66%, 38%, 40%, 44% and 60%, in treatment groups 1-5, respectively; in contrast, β-carotene concentrations declined by only 10% of original values over the same time period.

[2] = Lycopene content of rat prostate gland; assay type: in vivo, Fischer 344 rats; details: male
Excerpt: homogenized. […] This hexane extraction procedure was repeated 5-7 times.

retinol = assay: Liver vitamin A assay; assay type: in vivo, Fischer 344 rats; details: for Liver retinol: female
Excerpt: (§1) The effect of the tomato carotenoid supplement on the absorption and storage of two important fat soluble vitamins, namely, retinol and α-tocopherol, was investigated. Using established HPLC methods, a strong liner dose-response relationship was found between the lycopene content of the liver and both retinol and a-tocopherol concentration in female R-344 rats (Table 23).

in vivo = details: Fischer 344, rat
Procedure: Breast, liver and prostate tissue contain lipids which interfere with the assay. Consequently, a saponification step was required prior to organic extraction. Tissue was homogenized in 20 ml methanol to which echinenone was added as internal standard. For breast tissue, which comprise of 85% adipocytes, 8.0 ml 50% NaOH and 4.0 ml 25% sodium ascorbate was added and the mixture was homogenized. For prostate and liver tissue, which contain less lipid, 4.0 ml and 50% NaOH. and 2.0 ml sodium ascorbate were added and the mixture was
homogenized. Saponification was carried out in 50 ml tubes saturated with N2 gas overnight in a temperature controlled shaker bath at 30° C. Following saponification, 10 ml hexane was add d to each tube and vortexed for 1 minute. The mixture was then centrifuged at 2000 rpm for 10 min at 4° C. and the hexane layer was decanted and saved. This hexane extraction procedure was repeated 5-7 times. The pooled hexane extract was then dried under N2 gas at 60° C., dissolved in injection solvent and analyzed by HPLC. Lung and colon tissue were processed in an identical manner with the exception that the saponification step was omitted.

[3] = Preliminary feeding study, one male rat, 3 weeks; assay type: in vivo; details: 2.5 mM/kg diet
Procedure: One male rat was fed 2.5 mM lycopene (+other carotenoids)/kg diet for a period of 3 weeks. At this high dose, no change in body weight or food consumption was seen. […] The tail was brown. At necropsy, the liver was a deep red, as was the cecum and small intestine.

[4] = Dietary lycopene stability, AIN-76A diet at 4 °C in the dark; assay type: physicochemical; details: for % (diet concentration 744 μg/g as 100%) / Lycopene concentration: 4 °C dark; for Lycopene concentration: AIN-76A diet
Procedure: The stability of the lycopene suspension once incorporated into the diet was assessed in two ways. The first was by placing the diet containing the suspension at 4° C. in the dark for a period of 3 weeks (Table 8A,B).
(§2) At various time points, a diet sample was taken and lycopene was extracted as follows: Approximately 0.5 to 1.0 g of sample was added to a 15 ml volume of extraction solvent consisting of 40% acetonitrile, 20% hexane, 20% methanol and 20% methylenechloride. The mixture was sonicated for 2 minutes and allowed to stand for 5 minutes. The reddish-orange clear supernatant was then decanted. This process was repeated 4 times, at which time the supernatant was colorless. Solvent was then added to a volume of 25 to 100 ml, the mixture centrifuged, and the supernatant decanted. All supernatants were then mixed. The above solvent serves two purposes; first, it is the most efficient mixture for lycopene, and second, it is the same solvent used for injecting lycopene samples into the HPLC.

α-tocopherol = assay: Liver vitamin E assay; assay type: in vivo, Fischer 344 rats; details: for Liver α-tocopherol: female
Excerpt: as §1

[5] = Stability of lycopene incorporated into AIN-76A diet at ambient temperature in food cup (air and light); assay type: physicochemical; details: for Concentration: ambient temperature
Procedure: as §2
The second was by exposing the lycopene-containing diet to air and light, as is the case in an actual feeding study. The stability of lycopene in the food cup where it is exposed to light and air is seen in Table 9.

[6] = Group 1, lycopene 1280 mg/kg diet
[7] = Group 3, lycopene 256 mg/kg diet
[8] = Group 4, lycopene 128 mg/kg diet
[9] = Group 5, lycopene 51 mg/kg diet

CC(C)=CCC/C(C)=C/C=C/C(C)=C/C=C/C(C)=C/C=C/C=C(C)/C=C/C=C(C)/C=C/C=C(\C)CCC=C(C)C [Lycopene]
Carotenoid content of diet ([1]; Diet 1, 2.5 mM/kg diet): 472 μg/gm (ppm)
Carotenoid content of diet ([1]; Diet 2, 1.0 mM/kg diet): 348 μg/gm (ppm)
Carotenoid content of diet ([1]; Diet 3, 0.5 mM/kg diet): 168 μg/gm (ppm)
Carotenoid content of diet ([1]; Diet 4, 0.25 mM/kg diet): 92 μg/gm (ppm)
Carotenoid content of diet ([1]; Diet 5, 0.10 mM/kg diet): 22 μg/gm (ppm)
net loss over 7 months ([1]; diet of treatment group 1, 7 months storage): 66%
net loss over 7 months ([1]; diet of treatment group 2, 7 months storage): 38%
net loss over 7 months ([1]; diet of treatment group 3, 7 months storage): 40%
net loss over 7 months ([1]; diet of treatment group 4, 7 months storage): 44%
net loss over 7 months ([1]; diet of treatment group 5, 7 months storage): 60%
Lycopene content of prostate gland, Median ([2]; Group 1 (1280 mg/kg diet)): 99 ng/g
Lycopene content of prostate gland, Range ([2]; Group 1 (1280 mg/kg diet)): 79 to 112 ng/g
Lycopene content of prostate gland, mean ± SD ([2]; Group 1 (1280 mg/kg diet)): 97 ± 17 ng/g
Lycopene content of prostate gland, Median ([2]; Group 2 (512 mg/kg diet)): 83 ng/g
Lycopene content of prostate gland, Range ([2]; Group 2 (512 mg/kg diet)): 54 to 147 ng/g
Lycopene content of prostate gland, mean ± SD ([2]; Group 2 (512 mg/kg diet)): 95 ± 48 ng/g
Lycopene content of prostate gland, Median ([2]; Group 3 (256 mg/kg diet)): 35 ng/g
Lycopene content of prostate gland, Range ([2]; Group 3 (256 mg/kg diet)): 23 to 93 ng/g
Lycopene content of prostate gland, mean ± SD ([2]; Group 3 (256 mg/kg diet)): 50 ± 37 ng/g
Lycopene content of prostate gland, Median ([2]; Group 4 (128 mg/kg diet)): 52 ng/g
Lycopene content of prostate gland, Range ([2]; Group 4 (128 mg/kg diet)): 26 to 77 ng/g
Lycopene content of prostate gland, mean ± SD ([2]; Group 4 (128 mg/kg diet)): 52 ± 26 ng/g
Lycopene content of prostate gland, Median ([2]; Group 5 (51 mg/kg diet)): 47 ng/g
Lycopene content of prostate gland, Range ([2]; Group 5 (51 mg/kg diet)): 32 to 63 ng/g
Lycopene content of prostate gland, mean ± SD ([2]; Group 5 (51 mg/kg diet)): 47 ± 16 ng/g
difference in liver retinol between controls and the highest lycopene dose (retinol; female rats): 10 fold
Liver retinol (retinol; [6]): 1302 μg/gm
Liver retinol (retinol; Group 2, lycopene 512 mg/kg diet): 768 μg/gm
Liver retinol (retinol; [7]): 858 μg/gm
Liver retinol (retinol; [8]): 888 μg/gm
Liver retinol (retinol; [9]): 555 μg/gm
Kp (in vivo): 100 to 1000
change in body weight or food consumption [3]: no change
% (diet concentration 744 μg/g as 100%) ([4]; 1 day): 101%
% (diet concentration 744 μg/g as 100%) ([4]; 8 days): 98%
% (diet concentration 744 μg/g as 100%) ([4]; 14 days): 90%
% (diet concentration 744 μg/g as 100%) ([4]; 21 days): 72%
amount remaining relative to day 1 ([4]; 4 °C in the dark, 3 weeks): about 72%
decomposition ([4]; 4 °C in the dark, two weeks): about 10%
stability in the diet ([4]; 21 days in the dark at 4 °C): stable
Lycopene concentration ([4]; 1 day in refrigerator): 748 µg/g
Lycopene concentration ([4]; 8 days in refrigerator): 728 µg/g
Lycopene concentration ([4]; 14 days in refrigerator): 672 µg/g
Lycopene concentration ([4]; 21 days in refrigerator): 534 µg/g
difference in liver α-tocopherol between controls and the highest lycopene dose (α-tocopherol; female rats): 4 fold
Liver α-tocopherol (α-tocopherol; [6]): 47 μg/gm
Liver α-tocopherol (α-tocopherol; [7]): 39 μg/gm
Liver α-tocopherol (α-tocopherol; [8]): 46 μg/gm
Liver α-tocopherol (α-tocopherol; [9]): 32 μg/gm
stability in the diet ([5]; 7 days at ambient light and temperature): stable
Concentration ([5]; AIN-76A diet, 0 days in food cup): 744 µg/g
Concentration ([5]; 2 days in food cup): 702 µg/g
Concentration ([5]; 3 days in food cup): 616 µg/g
Concentration ([5]; 6 days in food cup): 547 µg/g
Concentration ([5]; 7 days in food cup): 439 µg/g
Concentration ([5]; 9 days in food cup): 624 µg/g
Concentration ([5]; 10 days in food cup): 576 µg/g
Concentration ([5]; 13 days in food cup): 449 µg/g
Concentration ([5]; 14 days in food cup): 419 µg/g
Concentration ([5]; 15 days in food cup): 425 µg/g
Concentration ([5]; 17 days in food cup): 431 µg/g
Concentration ([5]; 20 days in food cup): 385 µg/g
Concentration ([5]; 21 days in food cup): 376 µg/g
original lycopene no longer measurable ([5]; food cup, air and light, 3 weeks): one-half
lycopene lost ([5]; food cup, air and light, 48-hour period): a small amount is lost
total lycopene lost ([5]; food cup, air and light, 72 hours): approximately 20%
